Each structure is given as a SMILES string.

The values below come from patent publication US6696407B1, “Huntington's disease treatment comprising administering aldose reductase inhibitors to increase striatal CNTF” (The Regents of the University of California, priority 1997, dated 2004).

The test concerns CNTF. The experiment in a line: CNTF-like bioactivity of sciatic nerve homogenates (24 hour survival of E8CG neurons). It is filed as in vivo, rat. The procedure:
These studies were conducted with the approval of the San Diego Veterans Administration Animal Studies Subcommittee. Female Sprague-Dawley rats (240-300 g; Charles River, San Diego, Calif.) were housed in cages with wire bottoms to reduce contact with urine and feces. Groups were established and fed either a 40% D-galactose diet or a control diet specially formulated by Purina that contained 40% solka floc, a nonnutritive fiber, to balance nutritional intake. All diets contained 100% of the micronutrients required by rats and, with water, were available ad libitum. Each of these diet groups contained animals that were treated with the ARI, Ponalrestat (50 mg/kg), daily by oral gavage. After two months, rats were anesthetized by intraperitoneal injection (1 ml/kg ip) of pentobarbital sodium (12.5 mg/ml) and diazepam (1.25 mg/ml) in bacteriostatic saline. Under deep anesthesia, motor nerve conduction velocity (MNCV) was measured in the left hindlimb prior to removal of the sciatic nerve. The proximal portion was processed for subsequent light microscopic examination and the distal portion used for gas chromatographic analysis of nerve polyols. The contralateral sciatic nerve was removed and used for assay of CNTF-like neurotrophic activity and either Northern blot or ELISA analysis of CNTF mRNA or protein, respectively.
Bioassays were performed on extracts of sciatic nerve as described previously by Calcutt et al. (1992) Brain Res. 575:320-324. Briefly, 4 mm segments were homogenized in cold Hank's balanced salt solution, centrifuged and the soluble supernatant aspirated. An aliquot of the supernatant was used to determine the amount of protein using the Bradford assay. The remaining supernatant was used to assay CNTF-like activity by the ability to support the 24 hour survival of day eight embryonic chick ciliary ganglia (E8CG) neurons. E8CG neurons were obtained from chick ciliary ganglia after trypsin treatment and trituration in Dulbecco's Modified Eagle's Medium plus 10% fetal calf serum (DMEM+10% FCS). After seeding onto a tissue culture dish for 2.5 hours to allow attachment of nonneuronal cells, unattached neurons were collected, counted and added to 96-well microtiter plates (500 neurons/well) precoated with polyornithine and laminin. Nerve homogenates were serially diluted in DMEM+10% FCS, added to the microtiter plates and incubated for 24 hours. A dose-response curve using rat recombinant CNTF was used as a standard and to establish the maximum CNTF effect for each assay. […] Cells were then fixed and the number of surviving, intact, blue-staining cells counted using phase contrast microscopy. […]

Regarding `O=C(O)Cc1nn(Cc2ccc(Br)cc2F)c(=O)c2ccccc12` [Ponalrestat, 3-(4-bromo-2-fluorobenzyl)-4-oxo-3H-phthalazin-1-ylacetic acid], the “Increase of CNTF associated activity compared to normal rats that did not receive any ARI” value (normal rats, survival of embryonic chick ciliary ganglia neurons) was “two and one-half fold increase”. Also, the “Increase of CNTF-like bioactivity (TU/ml) compared to untreated control animals” value (sciatic nerve, control diet rats, 50 mg/kg daily oral, two months) was roughly 250%. Further, the “CNTF-like bioactivity relative to control levels” value (sciatic nerve, galactose-fed rats with ARI) was “not restored to control levels”. In addition, the “Increase of CNTF-like bioactivity (TU/ml) compared to the untreated galactose group” value (sciatic nerve, galactose-fed rats, 50 mg/kg daily oral, two months, P<0.05) came out at 60%.
